Publication PMC4791841, “Nanomolar Inhibitors of Trypanosoma brucei RNA Triphosphatase” (mBio, 2016)
Like-named read-outs stand apart in the source and are kept apart here.

Tests used:
TbCet1 [1] = target: T1, TbCet1 (Trypanosoma brucei brucei, UniProt Q582T2); assay: colorimetric malachite green HTS assay of Pi release from ATP by TbCet1
T1 sequence (Q582T2 1-253): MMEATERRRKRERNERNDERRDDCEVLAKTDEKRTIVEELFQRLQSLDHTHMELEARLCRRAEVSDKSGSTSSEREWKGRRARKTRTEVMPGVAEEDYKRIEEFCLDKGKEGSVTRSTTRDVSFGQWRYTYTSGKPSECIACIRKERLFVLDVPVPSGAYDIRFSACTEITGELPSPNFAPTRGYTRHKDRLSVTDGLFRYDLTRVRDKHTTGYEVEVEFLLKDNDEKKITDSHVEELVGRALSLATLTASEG

procyclic T. brucei = assay: cell proliferation of cultured procyclic T. brucei; format: cell-based, Trypanosoma brucei; conditions: 10 µM; preliminary studies, data not shown
TbCet1 [2] = target: T1, TbCet1; assay: TLC assay for 32Pi release from [γ-32P]ATP, TbCet1; conditions: for IC50: 2.2 nM TbCet1, 0.2 mM ATP, 2 mM Mn2+, 10 min 37°C
CthTTM [3] = target: T2, CthTTM (Acetivibrio thermocellus, UniProt A3DIJ8); assay: TLC assay for 32Pi release from [γ-32P]ATP, CthTTM; format: biochemical, Clostridium thermocellum; conditions: for IC50/IC50 TbCet1, CthTTM: ratio in parentheses
T2 sequence (A3DIJ8 1-156): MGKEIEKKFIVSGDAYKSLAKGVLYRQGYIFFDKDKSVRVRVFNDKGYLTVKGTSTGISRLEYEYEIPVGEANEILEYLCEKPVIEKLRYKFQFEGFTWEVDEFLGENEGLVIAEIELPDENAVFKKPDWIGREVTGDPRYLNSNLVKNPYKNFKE

MimiCE = target: T3, MimiCE (Acanthamoeba polyphaga mimivirus, UniProt Q5UQX1); assay: biochemical; format: biochemical; conditions: for IC50/IC50 TbCet1, MimiCE: ratio in parentheses;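 on all read-outs here: mimivirus capping enzyme triphosphatase ATPase reaction, radiolabeled ATP hydrolysis to Pi quantified by TLC after 10 min, normalized to no-inhibitor control with 5% DMSO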
T3 construct: the N-terminal RTPase domain (amino acids [aa] 1 to 237) of mimivirus capping enzyme (MimiCE); HisSmt3 (N, cleaved yes); made in house; host or cells: Escherichia coli
T3 sequence (Q5UQX1 1-237): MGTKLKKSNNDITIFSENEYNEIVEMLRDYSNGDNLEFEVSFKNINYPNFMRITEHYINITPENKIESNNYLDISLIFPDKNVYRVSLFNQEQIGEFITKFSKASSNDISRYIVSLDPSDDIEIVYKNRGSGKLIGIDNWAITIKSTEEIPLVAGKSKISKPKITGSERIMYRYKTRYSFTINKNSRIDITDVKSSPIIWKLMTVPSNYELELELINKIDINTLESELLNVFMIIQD

SceCet1 = target: T4, SceCet1 (Saccharomyces cerevisiae, UniProt O13297); assay: TLC assay for 32Pi release from [γ-32P]ATP, SceCet1; format: biochemical; conditions: for IC50/IC50 TbCet1, SceCet1: ratio in parentheses
T4 construct: C-terminal catalytic domain (aa 241 to 539) of S. cerevisiae RTPase (SceCet1); made in house; host or cells: Escherichia coli
T4 sequence (O13297 241-539): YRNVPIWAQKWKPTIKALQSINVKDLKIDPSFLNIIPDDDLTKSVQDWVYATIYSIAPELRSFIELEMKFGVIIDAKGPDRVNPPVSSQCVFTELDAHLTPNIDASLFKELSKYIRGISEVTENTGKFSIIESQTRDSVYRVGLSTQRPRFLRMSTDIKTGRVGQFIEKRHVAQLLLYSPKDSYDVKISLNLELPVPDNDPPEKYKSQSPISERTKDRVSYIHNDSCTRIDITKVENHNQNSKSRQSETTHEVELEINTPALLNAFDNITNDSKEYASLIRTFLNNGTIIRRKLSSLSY

Lef4 = target: T5, Lef4 (Autographa californica nuclear polyhedrosis virus, UniProt P41477); assay: TLC assay for 32Pi release from [γ-32P]ATP, Lef4; format: biochemical, Autographa californica nucleopolyhedrovirus (AcNPV); conditions: for IC50/IC50 TbCet1, Lef4: ratio in parentheses;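 on all read-outs here: Lef4 RNA triphosphatase cleaving radiolabelled ATP over 10 min at 37°C, hydrolysis set relative to inhibitor-free 5% DMSO controls, comparisons made against TbCet1 tested the same way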
T5 construct: the N-terminal RTPase domain (aa 1 to 236) of AcNPV Lef4 capping enzyme; HisSmt3 (N, cleaved yes); made in house; host or cells: Escherichia coli
T5 sequence (P41477 1-236): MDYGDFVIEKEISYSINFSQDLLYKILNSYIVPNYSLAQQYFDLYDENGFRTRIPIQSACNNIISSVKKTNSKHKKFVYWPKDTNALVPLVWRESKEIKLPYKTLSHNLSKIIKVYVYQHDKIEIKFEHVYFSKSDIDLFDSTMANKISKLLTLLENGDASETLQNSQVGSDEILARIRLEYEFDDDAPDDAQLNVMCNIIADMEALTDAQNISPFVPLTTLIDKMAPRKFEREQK

[4] = tested on: Trypanosoma cruzi amastigotes; set-up: method as in PMID 25880257; conditions: cited from earlier work
Leishmania amazonensis = tested on: Leishmania amazonensis; set-up: method as in PMID 25880257; conditions: cited from earlier work
CthTTM [5] = assay: TLC assay for 32Pi release from [γ-32P]ATP, CthTTM; format: biochemical, Clostridium thermocellum
TbCet1 [6] = target: T1, TbCet1; set-up: Recombinant full-length T. brucei RTPase TbCet1; HisSmt3 (N, cleaved yes); made in house; host or cells: Escherichia coli; method as in PMID 14525979; conditions: ATP substrate Km 25 µM; read-out: Ki, competitive inhibitor of TbCet1; cited from earlier work
[7] = 500 nM CthTTM, 37°C, read-out: IC50 CthTTM
[8] = 7 nM MimiCE, 37°C, read-out: IC50 MimiCE
[9] = 50 nM Lef4, 37°C, read-out: IC50 Lef4
[10] = read-out: IC50 by HTS assay, colorimetric phosphate release from ATP, Mn2+
[11] = read-out: IC50 TbCet1 by 32P assay

| Compound | IC50 (TbCet1 [1]) [µM] | IC50 (TbCet1 [2]; IC50 TbCet1 by 32P assay) [µM] | IC50/IC50 TbCet1, CthTTM (CthTTM [3]) | IC50 (MimiCE; [8]) [µM] | IC50/IC50 TbCet1, MimiCE (MimiCE) | IC50 (SceCet1) [µM] | IC50/IC50 TbCet1, SceCet1 (SceCet1) | IC50 (Lef4; [9]) [µM] | IC50/IC50 TbCet1, Lef4 (Lef4) | IC50 (Lef4) [µM] | further results |
| --- | --- | --- | --- | --- | --- | --- | --- | --- | --- | --- | --- |
| O=C(/C=C/c1ccc(O)c(O)c1)O[C@@H]1C[C@](OC(=O)/C=C/c2ccc(O)c(O)c2)(C(=O)O)C[C@@H](OC(=O)/C=C/c2ccc(O)c(O)c2)[C@H]1OC(=O)/C=C/c1ccc(O)c(O)c1 [Compound 1A, 1,3,4,5-O-tetracaffeoylquinic acid] | 0.02 | 0.013 | 846 | 1.4 | 108 | 7.1 | 546 | 5.7 | 438 | – | effect on cell proliferation (procyclic T. brucei): no effect; fold lower potency against CthTTM than against TbCet1 (CthTTM [3]): 850 fold; IC50 (CthTTM [3]; [7]): 11 µM; fold lower potency against MimiCE than against TbCet1 (MimiCE): 110 fold; fold lower potency against SceCet1 than against TbCet1 (SceCet1): 550 fold; fold lower potency against Lef4 than against TbCet1 (Lef4): 440 fold |
| O=C(/C=C/c1ccc(O)c(O)c1)O[C@@H]1CC(O)(C(=O)O)C[C@@H](OC(=O)/C=C/c2ccc(O)c(O)c2)C1O (stereo partly drawn) [Compound 1B, 3,5-O-dicaffeoylquinic acid] | – | – | – | – | – | – | – | – | – | – | IC50 (TbCet1 [1]; [10]): 0.04 µM; activity against Trypanosoma cruzi amastigotes [4]: inactive; IC50 (TbCet1 [2]; [11]): 0.07 µM; activity against Leishmania amazonensis (Leishmania amazonensis): inactive |
| O=C(OC[C@H]1O[C@@H](OC(=O)c2cc(O)c(O)c(O)c2)[C@H](OC(=O)c2cc(O)c(O)c(O)c2)[C@@H](OC(=O)c2cc(O)c(O)c(O)c2)[C@@H]1OC(=O)c1cc(O)c(O)c(O)c1)c1cc(O)c(O)c(O)c1 [Compound 2A, pentagalloylglucose] | 0.04 | 0.046 | – | – | – | – | – | – | – | 59 | IC50 (MimiCE): 5.1 µM; IC50 (SceCet1; read-out: IC50 SceCet1): 3.2 µM |
| O=C(CCO[C@@H]1O[C@H](CO)[C@@H](O)[C@H](O)[C@H]1O)c1ccc(O)cc1 [Compound 2B, 3-O-(4-hydroxyphenylpropanone)-1-glucopyranoside] | – | – | 44 | – | 182 | – | 62 | 150 | 227 | – | IC50 (TbCet1 [1]; [10]): 1.1 µM; IC50 (TbCet1 [2]; [11]): 0.66 µM; fold lower potency against CthTTM than against TbCet1 (CthTTM [3]): 44 fold; IC50 (CthTTM [3]; read-out: IC50 CthTTM, 500 nM CthTTM, 37°C): 29 µM; fold lower potency against MimiCE than against TbCet1 (MimiCE): 180 fold; IC50 (MimiCE; read-out: IC50 MimiCE, 7 nM MimiCE, 37°C): 120 µM; fold lower potency against SceCet1 than against TbCet1 (SceCet1): 62 fold; IC50 (SceCet1; read-out: IC50 SceCet1, 25 nM SceCet1, 30°C): 41 µM |
| O=C(/C=C/c1ccc(O)c(O)c1)O[C@H](Cc1ccc(O)c(O)c1)C(=O)O [Compound 3A, rosmarinic acid] | 0.05 | 0.12 | – | – | – | – | – | – | – | – | – |
| O=C(O)C1OC(Oc2c(-c3ccc(O)c(O)c3)oc3cc(O)cc(O)c3c2=O)C(O)C(O)C1O (stereo not drawn) [Compound 4A, miquelianin] | 0.18 | 0.18 | 133 | 19 | 106 | 43 | 239 | – | 161 | 29 | IC50 (CthTTM [3]): 24 µM |
| O=c1c(O)c(-c2cc(O)c(O)c(O)c2)oc2cc(O)cc(O)c12 [Compound 4B, myricetin] | 0.23 | 0.36 | – | – | – | – | – | – | – | – | – |
| Oc1cc(O)c2c(c1)O[C@H](c1ccc(O)c(O)c1)[C@H](O)C2 [Compound 4C, epicatechin] | 0.26 | 0.25 | 104 | 10 | 40 | 8.7 | 35 | – | 136 | 34 | IC50 (CthTTM [3]; [7]): 26 µM |
| O=C(CCO)c1ccc(O)cc1 [Compound 5, 3-hydroxy-1-(4-hydroxyphenyl)propan-1-one] | 0.63 | 0.64 | 14 | 84 | 131 | > 500 | – | – | 250 | 160 | IC50 (CthTTM [3]; [7]): 9.2 µM; activity against SceCet1 (in words) (SceCet1): no effect |
| O=C(C=Cc1ccccc1)OC1C=C(C(=O)O)CC(OC(=O)C=Cc2ccccc2)C1OC(=O)C=Cc1ccccc1 (stereo not drawn) [Compound 6B, 3,4,5-tricinnamoylshikimic acid] | – | – | – | 19 | 13 | – | – | 10 | 7 | – | IC50 (TbCet1 [2]; [11]): 1.5 µM; fold lower potency against CthTTM than against TbCet1 (CthTTM [5]): 100 fold; IC50 (CthTTM [5]; 500 nM CthTTM, 37°C): 150 µM; IC50/IC50 TbCet1, CthTTM (CthTTM [5]; ratio in parentheses): 100; activity against SceCet1 (in words) (SceCet1): inactive; IC50 (SceCet1; 25 nM SceCet1, 30°C, read-out: IC50 SceCet1): > 500 µM |
| CC(=O)O[C@@]12C[C@@H](OC(=O)/C=C/c3ccc(O)c(O)c3)[C@@H](OC(=O)/C=C/c3ccc(O)c(O)c3)[C@@H](C1)OC2=O [Compound 6C, 1-acetyl,4,5-dicaffeoylquinide] | – | 3.6 | 13 | – | 4 | 14 | 4 | 21 | 6 | – | fold lowered potency against TbCet1 versus compound 6A (TbCet1 [2]; acetate for the R1 caffeic acid): 30 fold; IC50 (CthTTM [3]): 46 µM; IC50 (MimiCE): 15 µM |
| O=P(O)(O)OP(=O)(O)OP(=O)(O)O [Tripolyphosphate] | – | – | – | – | – | – | – | – | – | – | Ki (TbCet1 [6]): 1.4 µM |
| pentagalloylgalloylglucose [tannic acid] | – | – | – | – | – | – | – | – | – | – | IC50 (TbCet1 [1]; read-out: IC50 TbCet1, small-scale test library screens performed here and previously [37]): 0.06 µM |
